From US20180064662A1 (THE GENERAL HOSPITAL CORPORATION, priority 2015, published 2018) come the findings set out here.

Bounds are passed on as bounds.

In one data set the test system is PAN02 tumors. Briefly: Orthotopic PAN02 PDAC model in obese C57BL/6 mice, metformin in drinking water. Format: in vivo, mouse. The source says:
Wild-type (WT) C57BL/6 and FVB male mice were originally obtained from The Jackson Laboratory (The Jackson Laboratory, Bar Harbor, Me.) and bred and maintained in our defined-flora animal facility. Mice were maintained on a 12-h light-dark cycle in a temperature-controlled barrier facility, with ad libitum access to food and acidified water. To generate obese/diabetic mouse models, mice (6-weeks old) were given a 60% fat diet (D12492, Research Diets, New Brunswick, N.J.) for 10 weeks as previously described (49-51). For tumor experiments, the PAN02 and AK4.4 syngeneic PDAC models were used in C57BL/6 and FVB immunocompetent mice, respectively. PAN02 cells (SMAD4-m174) (52) were obtained from ATCC. AK4.4 cells (KrasG12D and p53^+/−) were isolated from mice generating spontaneous pancreatic tumors (Pt∫1-Cre/LSL-Kras^G12D/p53^Loxi−) (53). Orthotopic pancreatic tumors were generated by implanting a small piece (1 mm^3) of viable tumor tissue (from a source tumor in a separate donor animal) into the pancreas of a 6-8- week-old male lean or obese FVB (AK4.4 model) or C57BL/6 (PAN02 model) mouse. Both tumor models used were authenticated by IDEXX Laboratories. (PAN02: IDEXX RADIL Case # 22366-2013. AK4.4: IDEXX RADIL Case # 27818-2014).
At day 21, plasma and tumor samples were collected, and tumors were weighed and processed for further analysis.
This can be translated to the human equivalent dose by using the Reagan-Shaw method (54). According to the formula for the human equivalent dose [(mg/kg)=animal dose (mg/kg)×animal (km)/human (km). Km for a 60 kg human adults equals 37 and for a 20 g mouse equals 3], the human equivalent of murine dose of 300 mg/kg is 1459 mg for an average sized 60 kg adult human. Therefore, the selected dose in the present study is within the safe therapeutic range recorded in humans. […] This was compatible with the therapeutic periods reported in previous studies (55, 56). […] The amount added to each animal cage was calculated based on the average daily water intake for that cage during a period of 2 weeks prior to treatment initiation, and adjusted every three days based on water consumption and body weight of the animals. […] For in vitro experiments, a range of concentration from 0.05 to 25 mM depending on the cell line used, as discussed below.
Immediately following excision, tumor tissue was snap frozen and stored in liquid nitrogen. Total RNA was extracted and relative gene expression for macrophage M1/M2 markers was determined using a Sybr-green based standard protocol. In addition, total RNA was extracted and relative gene expression was determined using RT2 Profiler PCR Arrays system (Qiagen) on a Stratagene Mx3000P QPCR System using pre-made pathway-focused arrays (“Fibrosis”-Cat. Number: PAMM011Z; “Epithelial to Mesenchymal Transition (EMT)”-Cat. Number: PAMM090Z; “TGF-β signaling targets”-PAMM235Z; “Extracellular Matrix & Adhesion Molecules”-Cat. Number: PAMM013Z; and “Common cytokines ”-Cat. Number: PAMM021Z).
Each tumor sample was homogenized directly in lysis buffer for protein extraction. 20 ug of denatured protein per sample was loaded on 7%, 10% and 12% SDS-polyacrylamide gels. Antibodies used: phospho-p38 MAPKT^180/Y182 and p38; phospho-JNK (SAPK/JNK)^Thr183/Tyr185 and JNK; phospho-AKT^Ser473 and AKT, phospho-ERK(p44/42 MAPK)^T202/Y204 and ERK; phospho-NF-κB^Ser536 and NK-κB; p65^Ser536; phospho-Smad2^Ser465/467 and Smad2; phospho-IGF-I Receptor β^Tyr1135 and IGF; Phospho-IRS-1^Ser612 and IRS; IR; phpspho-stat3^Tyr705 and stat3; Phospho-AMPKα^Thr172 and Ampkα; phospho-Ampkβ^Ser108 and Ampk; phospho-ACC^Ser79 and ACC; Phospho-PDGF Receptor β^Tyr751 and PDGF Receptor β and snail, c-cadherin and vimentin, TGF-β, β-catenin, twist, LC3B. […]

Another data set has as its system macrophage viability. Briefly: MTT viability assay on macrophages. The data set is classed as cell-based, mouse. To be noted: 48 h. (Tetrazolium dyes change colour on reduction, which living cells bring about.)
Where [1] appears, read: TAMs from PAN02 tumors in vivo, qPCR.
Setting [2] is: obese C57BL/6 mice, metformin 300 mg/Kg.
[3] abbreviates: particularly evident in the more metastatic model PAN02.

As to `CN(C)C(=N)N=C(N)N` [metformin, 3-(diaminomethylidene)-1,1-dimethylguanidine], in the data set on PAN02 tumors (setting [1]), the “expression of M1 markers in flow-sorted TAMs” value is given as “without significantly affecting”, the “expression of M2 marker Arg-1 in flow-sorted TAMs” value is 1/2 and the “expression of M2 marker IL-10 in flow-sorted TAMs” value was 2/3. In the data set with PAN02 tumors (Western blot), the “activation and phosphorylation of IGFR-1 and IRS-1 in tumors” value was “trend for reduced activation and phosphorylation”; the “activation of ACC in tumors” value was “increased”; the “expression of the autophagy marker L3CB” value is recorded as “unchanged”. Further, the “average MMP-2 levels in metformin treated tumors” value in the data set on PAN02 tumors (Western blot, not significant) was “approximately half”. Moreover, the IL-1β in tumors result in the data set on PAN02 tumors (after metformin treatment) is recorded as “reduction of IL-1β”. Further, the “TAM levels lower with metformin treatment” value in the data set with PAN02 tumors (flow cytometry, not significant) is reported as roughly 30%. Moreover, in the data set on PAN02 tumors (setting [2]), the “activation of STAT3 in whole tumors” value is recorded as “decreased activation of STAT3” and the “p38 activation in whole tumors” value is given as “trend for reduced p38”. Besides, in the data set on PAN02 tumors (obese C57BL/6 mice, metformin 300 mg/Kg in drinking water, did not reach statistical significance), the “decreased expression of HA” value is 40%. The “reduced density of HA positive activated-PSCs” value in the data set with PAN02 tumors (obese C57BL/6 mice, metformin 300 mg/Kg, did not reach significance) is listed as 57%. For the same compound, the “decreased expression of collagen-I” value with PAN02 tumors (obese C57BL/6 mice, metformin 300 mg/Kg, did not reach statistical significance) was found to be 22%. For the same compound, the “reduced density of collagen-I positive activated PSCs in tumors” value with PAN02 tumors (obese C57BL/6 mice, metformin 300 mg/Kg, significant) was determined as 54%. Moreover, in the data set with PAN02 tumors (setting [3]), the “average number of mesenteric peritoneal and retroperitoneal wall metastasis per mouse” value was “reduced”; the “incidence of metastasis (number of mice affected)” value is listed as “reduced the incidence of metastasis”. Besides, the body weight entry in the data set with PAN02 tumors (tumor-bearing mice) was “no change in body weight”. The “doses at which metformin reduces macrophage viability” value in the data set with macrophage viability is listed as greater than 0.2 mM. Besides, the “doses at which metformin reduces macrophage viability” value with macrophage viability (listed as Metformin) is no less than 0.4 mM.
